Assay results reported in patent publication US12076334B2, “Pharmaceutical composition comprising adenosine derivative for prevention and treatment of retinal disease or optic nerve disease” (FUTURE MEDICINE CO., LTD., priority 2017, dated 2024).
Like-named read-outs stand apart in the source and are kept apart here.

Columns and labels:
[1] = system: photoreceptor cells derived from the mouse retina; test: Mitochondrial membrane potential analysis (JC-1, flow cytometer); type: cell-based; conditions: for R2 (cell distribution, JC-1 flow cytometry): normal control 13.78 ± 1.12; for R1 (cell distribution, JC-1 flow cytometry): normal control 86.22 ± 1.12
Experimental: The prepared solution was stored at −20° C. until use. In addition, 10 mg of CCCP was dissolved in 1 mL of DMSO to prepare a 50 mM CCCP solution. The prepared solution was stored at −20° C. until use. Treatment of the test material was performed after diluting with a serum-free cell culture medium in 1:1000 (v/v). The control group was treated after diluting with DMSO in 1:1000 v/v).
Intracellular mitochondrial cell membrane potential was analyzed using JC-1 reagent. […] Thereafter, […] of JC-1 was treated and incubated for 30 minutes.

[2] = system: mouse retina-derived photoreceptor cell; test: Immunoblot of apoptosis-related proteins in glutamic acid-treated photoreceptor cells; type: cell-based
Experimental: (§1) Compound A to be used as a test material was prepared by dissolving in DMSO. The prepared solution was stored at −20° C. until use. In addition, 10 mg of CCCP was dissolved in 1 mL of DMSO to prepare a 50 mM CCCP solution. The prepared solution was stored at −20° C. until use. Treatment of the test material was performed after diluting with a serum-free cell culture medium in 1:1000 (v/v). The control group was treated after diluting with DMSO in 1:1000 v/v).
In order to confirm the efficacy of a test material for angiogenesis-related response and inflammatory response of a mouse retina-derived photoreceptor cell, cells cultured for 24 hours under various conditions were collected and intracellular protein was extracted by using a PRO-PREP protein extraction kit. Quantification of the extracted protein was measured using a BCA protein assay kit. 40 μg of protein was separated by 10% SDS-PAGE and then attached to a PVDF membrane. The protein-attached membrane was reacted with Tris-buffered saline with 0.1% Tween-20 (TBST) containing 5% skim milk for 30 minutes, followed by reactions of primary and secondary antibodies in sequence. The protein expression level was confirmed using photograph by a Fusion Fximage acquisition system. The protein expression level was analyzed by expressing as a relative value using ImageJ.

[3] = system: photoreceptor cells derived from the mouse retina; test: TUNEL assay and DAPI staining of glutamic acid-induced apoptosis; type: cell-based; conditions: pretreated 1 μM 1 hour, then 5 mM glutamic acid 8 hours; vs glutamic acid only
Experimental: as §1
Quantitative analysis of apoptosis cells was analyzed by DeadEnd™ Fluorometric TUNEL System. […] Cells were washed twice with PBS and fixed with 10% formalin for 15 minutes. Fixed cells were exposed to 0.1% Triton X-100 for 10 minutes. After the cells were reacted with dUTP containing fluorescence, the cut DNA portion was stained and then fixed on a slide with a mounting solution containing DAPI. The stained cells were observed through a fluorescence microscope.

[4] = system: photoreceptor cells derived from mouse retina; test: RT-PCR mRNA expression of angiogenesis- and inflammation-related factors in HMGB-1-treated photoreceptor cells; type: cell-based; conditions: increased by HMGB-1, 6 h
Experimental: (§2) Compound A to be used as a test material was prepared by dissolving in DMSO. The prepared solution was stored at −20° C. until use. Treatment of the test material was treated after diluting to 1:1000 (v/v) in a serum-free cell culture medium. The control group was treated after diluting to 1:1000 (v/v) in DMSO.
In order to confirm the efficacy of the test material in reactions related to angiogenesis and inflammatory response of photoreceptor cells derived from mouse retina, cells cultured for 6 hours under various conditions were treated with TRIzol solution to isolate total RNA in cells. After the cDNA was synthesized using specific primers for the target gene (Table 2) and reverse transcriptase in the isolated total RNA, expression of the related factors was confirmed. mRNA expression levels were analyzed by expressing as relative values using ImageJ software.

[5] = system: caspase 8; test: Caspase 8 activity assay (Caspase-Glo 8); type: cell-based, mouse; conditions: pretreatment 1 hour, then 5 mM glutamic acid 24 hours
Experimental: The activity of intracellular caspase 8 was analyzed by Caspase-Glo 8 assay system. […] After adding the kit solution in the same amount as the cell culture medium and reacting for 1 hour, the relative activity was analyzed by measuring the amount of generated luminescence through a microplate reader.

[6] = system: caspase 3/7; test: Caspase 3/7 activity assay (Caspase-Glo 3/7); type: cell-based, mouse; conditions: pretreatment 1 hour, then 5 mM glutamic acid 24 hours
Experimental: The activity of intracellular caspase 3/7 was analyzed by Caspase-Glo 3/7 assay system. […] After adding the kit solution in the same amount as the cell culture medium and reacting for 1 hour, the relative activity was analyzed by measuring the amount of generated luminescence through a microplate reader.

[7] = system: photoreceptor cells derived from mouse retina; test: ELISA of intracellular inflammatory cytokines (TNFα, IL-1β, IL-6) in HMGB-1-treated photoreceptor cells; type: cell-based; conditions: increased by HMGB-1, 24 h
Experimental: as §2
In order to confirm the efficacy of the test material in reactions related to angiogenesis and inflammatory response of photoreceptor cells derived from mouse retina, cells cultured for 24 hours under various conditions were recovered and intracellular proteins were extracted using a PRO-PREP protein extraction kit. Quantification of the extracted protein was measured using a BCA protein assay kit. Quantitative analysis of inflammatory cytokines (TNFα, IL-1β, IL-6) present in the cells was analyzed with each ELISA kit.

[8] = system: photoreceptor cells derived from mouse retina; test: Immunoblot of angiogenesis- and inflammation-related proteins in HMGB-1-treated photoreceptor cells; type: cell-based; conditions: 24 h
Experimental: as §2
In order to confirm the efficacy of the test material in reactions related to angiogenesis and inflammatory response of photoreceptor cells derived from mouse retina, cells cultured for 24 hours under various conditions were recovered and intracellular proteins were extracted using a PRO-PREP protein extraction kit. Quantification of the extracted protein was measured using a BCA protein assay kit. 40 μg of protein was separated by 10% SDS-PAGE and then attached to the PVDF membrane. The protein-attached membrane was reacted with TBST (Tris-buffered saline with 0.1% Tween-20) containing 5% skim milk for 30 minutes and the primary antibody and secondary antibody were reacted in sequence. The protein expression level was confirmed by photographing using a Fusion Fximage acquisition system. The protein expression level was analyzed by relative values using ImageJ.
In relation to high mobility group box 1 (HMGB-1), it has been reported that the expression of HMGB-1 was increased when pressure was applied to photoreceptor cells derived from the mouse retina, and when HMGB-1 was treated to photoreceptor cells, angiogenesis-related factors and inflammatory responses increase (Bohm M R et al., Lab Invest, 96, 409-427, 2016). Accordingly, in the present disclosure, the efficacy of adenosine derivatives against angiogenic response and inflammatory response according to damage to photoreceptor cells was verified based on the above reference.

[9] = system: photoreceptor cells derived from the mouse retina; test: Cell protective effect against glutamic acid-induced cell death (cell viability); type: cell-based; conditions: n=6, read-out: EC50 (50% effective concentration), protection from glutamic acid-induced apoptosis
Experimental: as §1
This experimental result means that Compound A has a protective effect against glutamic acid-induced apoptosis.

[10] = system: photoreceptor cells derived from mouse retina; test: ELISA of VEGF in medium of HMGB-1-treated photoreceptor cells; type: cell-based; conditions: increased by HMGB-1; Compound A 0.1 μM or more; 24 h
Experimental: as §2
In order to confirm the efficacy of the test material in reactions related to angiogenesis of photoreceptor cells derived from mouse retina, the medium of cells cultured for 24 hours under various conditions was collected after centrifugation. Quantitative analysis of VEGF present in the medium was analyzed with the Mouse VEGF Quantikine ELISA Kit.

[11] = Cytotoxicity of glutamic acid (cell viability, cell proliferation assay kit); type: cell-based; conditions: mouse; 0-9 mM, 24 hours incubation
[12] = cells treated with the agent only (glutamic acid 5 mM 6 hours, or CCCP)
[13] = changed by glutamic acid, pretreated with Compound A
[14] = increased by glutamic acid, pretreated with Compound A
[15] = pretreatment of Compound A, glutamic acid-treated cells
[16] = HMGB-1 (5 μg/mL), Compound A 2 μM
[17] = HMGB-1 (5 μg/mL), Compound A at least 0.1 μM
[18] = HMGB-1 (5 μg/mL), Compound A at least 0.5 μM
[19] = increased by HMGB-1 (5 μg/mL), Compound A at least 0.5 μM
[20] = pretreated with 1 μM Compound A 1 hour, then 5 mM glutamic acid 6 hours

Question: What does the source list for N#CC(C#N)=NNc1cccc(Cl)c1 [CCCP]?
Answer: R2 (cell distribution, JC-1 flow cytometry) [1, 12]: 90.58 ± 1.48; R1 (cell distribution, JC-1 flow cytometry) [1, 12]: 9.42 ± 1.48

Question: With O[C@@H]1[C@H](O)CS[C@H]1n1cnc2c(NCc3cccc(Cl)c3)nc(Cl)nc21 [Compound A, (2R,3R,4S)-2-(2-chloro-6-(3-chlorobenzylamino)-9H-purin-9-yl)tetrahydrothiophene-3,4-diol] as the molecule, how does the BID protein expression [2, 13] read?
Answer: recovered to the same expression level as the normal group

Question: And the Bad protein expression [2, 13]?
Answer: recovered to the same expression level as the normal group

Question: And the Bcl2 protein expression [2, 13]?
Answer: recovered to the same expression level as the normal group

Question: And the pBad protein expression [2, 13]?
Answer: recovered to the same expression level as the normal group

Question: What about the pBcl2 protein expression [2, 13] of the same molecule?
Answer: recovered to the same expression level as the normal group

Question: And the RIP protein expression ([2]; decreased by glutamic acid, pretreated with Compound A)?
Answer: increased again in a concentration-dependent manner

Question: And the “caspase 8 protein expression” value [2, 14]?
Answer: significantly decreased

Question: And the “cleaved caspase 3 protein expression” value [2, 14]?
Answer: significantly decreased

Question: What about the “cleaved caspase 9 protein expression” value [2, 14] of the same molecule?
Answer: significantly decreased

Question: What about the “expression of AIF in the nucleus” value [2, 15] of the same molecule?
Answer: decreased significantly

Question: And the “expression of cytochrome c in the cytoplasm” value [2, 15]?
Answer: decreased significantly

Question: What about the “number of TUNEL-positive nuclei” value [3] of the same molecule?
Answer: significantly reduced

Question: What about the “COX2 mRNA expression” value ([4]; Compound A 0.1 μM or more) of the same molecule?
Answer: significantly inhibited

Question: And the “IL-6 mRNA expression” value ([4]; Compound A 0.1 μM or more)?
Answer: significantly inhibited

Question: And the “VEGF mRNA expression” value ([4]; Compound A 0.1 μM or more)?
Answer: significant decrease

Question: And the “VEGFR1 mRNA expression” value ([4]; Compound A 0.1 μM or more)?
Answer: significant decrease

Question: What about the “MMP9 mRNA expression” value ([4]; Compound A 0.5 μM or more) of the same molecule?
Answer: significantly reduced

Question: What about the “TNFα mRNA expression” value ([4]; Compound A 0.5 μM or more) of the same molecule?
Answer: significantly reduced

Question: What about the “VEGFR2 mRNA expression” value ([4]; Compound A 0.5 μM or more) of the same molecule?
Answer: significantly decreased

Question: And the “ICAM1 mRNA expression” value ([4]; Compound A 1 μM or more)?
Answer: significantly reduced

Question: And the “MMP2 mRNA expression” value ([4]; Compound A 1 μM or more)?
Answer: significantly reduced

Question: And the “VCAM1 mRNA expression” value ([4]; Compound A 1 μM or more)?
Answer: significantly reduced

Question: What about the “activity of caspase 8” value [5] of the same molecule?
Answer: inhibited in a concentration-dependent manner

Question: And the “activity of caspase 3/7” value [6]?
Answer: inhibited in a concentration-dependent manner

Question: And the “amount of TNFα in cells (ELISA)” value ([7]; Compound A 0.1 μM or higher)?
Answer: significantly reduced

Question: What about the “amount of IL-1β in cells (ELISA)” value ([7]; Compound A 1 μM or higher) of the same molecule?
Answer: significantly reduced

Question: What about the “amount of IL-6 in cells (ELISA)” value ([7]; Compound A 1 μM or higher) of the same molecule?
Answer: significantly reduced

Question: What about the ANG1 protein expression [8, 16] of the same molecule?
Answer: significantly increased

Question: And the ICAM1 protein expression [8, 16]?
Answer: significantly decreased

Question: What about the VCAM1 protein expression [8, 16] of the same molecule?
Answer: significantly decreased

Question: And the ANG2 protein expression [8, 17]?
Answer: significantly decreased

Question: What about the MMP9 protein expression [8, 17] of the same molecule?
Answer: significantly decreased

Question: And the VEGFR1 protein expression [8, 17]?
Answer: significantly decreased

Question: What about the COX2 protein expression [8, 18] of the same molecule?
Answer: significantly reduced

Question: And the MMP2 protein expression [8, 18]?
Answer: significantly reduced

Question: And the VEGF protein expression [8, 19]?
Answer: significantly reduced

Question: And the VEGFR2 protein expression [8, 19]?
Answer: significantly reduced

Question: What about the EC50 ([9]; pretreatment for 30 min) of the same molecule?
Answer: 0.31 ± 0.08 µM

Question: And the EC50 ([9]; pretreatment for 1 hour)?
Answer: 0.35 ± 0.06 µM

Question: And the “amount of VEGF (ELISA, medium)” value [10]?
Answer: significantly decreased

Question: What about the “R2 (cell distribution, JC-1 flow cytometry)” value [1, 20] of the same molecule?
Answer: 28.30 ± 1.60

Question: What about the “R1 (cell distribution, JC-1 flow cytometry)” value [1, 20] of the same molecule?
Answer: 71.70 ± 1.60

Question: With N[C@@H](CCC(=O)O)C(=O)O [glutamic acid] as the molecule, how does the IC50 at 24 h [11] read?
Answer: 5100 ± 500 µM

Question: What about the “R2 (cell distribution, JC-1 flow cytometry)” value [1, 12] of the same molecule?
Answer: 63.87 ± 10.42

Question: What about the “R1 (cell distribution, JC-1 flow cytometry)” value [1, 12] of the same molecule?
Answer: 36.13 ± 10.42
